Measurements taken from patent US20080071116A1, “Modulators of Lysophosphatidic Acid (Lpa) Signaling and the Use Thereof” (THE BOARD OF REGENTS OF THE UNIVERSITY OF TEXAS SYSTEM, priority 2004, published 2008).

What was measured:
[1] = molecular target: T1, LPA2 receptor (Homo sapiens, UniProt Q9HBW0); test: calcium mobilization in Sf9 insect cells expressing LPA2; assay type: cell-based; design: expressed in transfected cells; host or cells: Sf9 insect cells
[2] = molecular target: T1, LPA2 receptor; test: GTP[γ-35S] binding assay, HEK293 T membranes, LPA2; assay type: biochemical; design: expressed in transfected cells; host or cells: HEK293 T cells (crude microsomal membranes); settings: HEK293 transfected with LPA2, FIG. 59B
Procedure: (§1) OMPT also enhances GTP [γ-^35S] binding in the cell membrane of HEK293 T cells expressing LPA3. The procedures for these GTP [γ-^35S] binding assays involve co-transfection of HEK293 T cells with expression vectors encoding one of the receptors for LPA (LPA1, LPA2, or LPA3) or S1P (S1P3/Edg3) by calcium phosphate precipitation, together with plasmids encoding three G proteins (rat Gi2α, cow β1, and cow γ2). After about 48 hours, cells were harvested and crude microsomal membranes were prepared. Membranes containing about 5 μg of protein were incubated in 0.1 ml of GTP-binding buffer (50 mM Hepes, 100 mM NaCl, 10 mM MgCl2, pH7.5) having 5 μg of saponin, 0.1% fatty acid-free BSA, 10 μM GDP, 0.1 nM GTP[γ-^35S] (1200 Ci/mmole) together with indicated concentrations of LPA or OMPT for about 30 min at 30° C. Membranes were collected using a 96-well Brandel Cell Harvester (Gaithersburg, Md.), and bound radionuclide was determined using a Packard TopCount liquid scintillation counter.

[3] = molecular target: T2, LPA3 receptor (Homo sapiens, UniProt Q9UBY5); test: GTP[γ-35S] binding assay, HEK293 T membranes, LPA3; assay type: biochemical; settings: HEK293 transfected with LPA3, FIG. 59C
T2 construct: expressed in transfected cells; host or cells: HEK293 T cells (crude microsomal membranes)
Procedure: as §1
T2 sequence (P04897 2-355 partner limits assumed, one chain of several): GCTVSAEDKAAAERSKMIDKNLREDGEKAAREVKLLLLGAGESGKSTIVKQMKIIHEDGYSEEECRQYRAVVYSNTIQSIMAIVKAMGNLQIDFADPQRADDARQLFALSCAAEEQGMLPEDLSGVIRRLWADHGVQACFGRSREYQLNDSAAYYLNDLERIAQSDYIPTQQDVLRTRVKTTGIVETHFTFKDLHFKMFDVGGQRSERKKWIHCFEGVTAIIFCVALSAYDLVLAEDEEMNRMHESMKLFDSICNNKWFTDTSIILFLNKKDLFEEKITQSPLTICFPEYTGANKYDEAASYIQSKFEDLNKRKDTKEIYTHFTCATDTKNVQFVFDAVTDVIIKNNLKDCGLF
T2 sequence (P62871 2-340 partner limits assumed, one chain of several): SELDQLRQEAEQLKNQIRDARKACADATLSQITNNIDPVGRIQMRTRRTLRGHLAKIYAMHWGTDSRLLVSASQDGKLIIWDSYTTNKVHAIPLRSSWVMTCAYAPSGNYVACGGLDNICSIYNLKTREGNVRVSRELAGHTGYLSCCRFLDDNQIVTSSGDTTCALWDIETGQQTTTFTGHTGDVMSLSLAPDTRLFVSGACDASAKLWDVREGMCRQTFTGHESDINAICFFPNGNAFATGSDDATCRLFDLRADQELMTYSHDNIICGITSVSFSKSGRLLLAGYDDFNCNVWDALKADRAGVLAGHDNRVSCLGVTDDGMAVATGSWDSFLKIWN
T2 sequence (P63212 2-68 partner limits assumed, one chain of several): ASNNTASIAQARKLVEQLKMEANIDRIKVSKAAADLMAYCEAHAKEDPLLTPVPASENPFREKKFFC

[4] = system: PC-3 cells; test: membrane ruffling and cell migration in PC-3 cells; assay type: cell-based, human
[5] = system: PC-3 cells; test: calcium mobilization assay in androgen insensitive prostate cancer PC-3 cells; assay type: cell-based, human; settings: Homo sapiens
Procedure: The procedures for these calcium mobilization assays are as followed: OVCAR3 cells and PC-3 cells were cultured in RPMI 1640 medium with 10% FBS (fetal bovine serum). HT29 cells were cultured in DMEM (high glucose) medium with 10% FBS. All cells were cultured at about 37° C. in a humidified atmosphere with 5% CO2. After starvation in serum-free medium for about 12-24 hours, cells were harvested and loaded with about 1 μM of Indo-1 AM in serum-free medium for about 45 min at 37° C. Cells were washed in PBS and resuspended at 2×10^6 cells/ml in a [Ca^2+]i assay buffer (Sodium chloride, NaCl, about 140 mM, potassium chloride, KCl, about 2 mM, magnesium chloride, MgCl2, about 1 mM, calcium chloride, CaCl2, about 2 mM, in about 25 mM HEPES buffer at pH 7.4 with about 10 mM of glucose). Cytoplasmic [Ca^2+]i was determined at an excitation wavelength of about 331 nm and an emission wavelength of 410 nm using a fluorescence spectrophotometer (Hitachi, F-4000). Approximately 3×10^6 cells were used for [Ca^2+]l determination in a stirred quartz cuvette kept at about 37° C. OMPT or 18:1 LPA was dissolved in about 0.1% BSA/PBS solution and applied immediately to the cells. To test other LPA derivatives of the invention, cells were exposed to the derivatives for about 3 minutes or for a period of various times in time course related experiments before a LPA agonist, such as 18:1 LPA, OMPT, or other LPAs was applied into the cuvette.
The concentration of calcium mobilization giving the half-maximal response (EC50) was obtained from the concentration-response curve fitted to a sigmoidal logistic equation, with the maximal calcium response set to 100% using the GraphPad Prism. Maximal response value is expressed as mean +/−s.e.m. EC50 value is expressed with 95% confidence.

[6] = molecular target: T3, LPA3 receptor (Homo sapiens, UniProt Q9UBY5); test: calcium mobilization in Sf9 insect cells expressing LPA3; assay type: cell-based; design: expressed in transfected cells; host or cells: Sf9 insect cells
T3 sequence (Q9UBY5 1-353): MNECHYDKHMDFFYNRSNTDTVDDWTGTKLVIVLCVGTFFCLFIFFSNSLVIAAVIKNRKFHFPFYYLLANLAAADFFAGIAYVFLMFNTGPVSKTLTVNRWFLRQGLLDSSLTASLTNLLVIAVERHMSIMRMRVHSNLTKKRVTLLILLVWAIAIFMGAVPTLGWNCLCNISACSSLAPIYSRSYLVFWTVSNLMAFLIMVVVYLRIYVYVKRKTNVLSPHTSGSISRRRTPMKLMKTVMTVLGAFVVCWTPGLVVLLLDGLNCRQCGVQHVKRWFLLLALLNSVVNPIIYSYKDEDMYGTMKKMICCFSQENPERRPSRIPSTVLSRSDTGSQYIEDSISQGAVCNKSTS

[7] = system: chimera receptor, LPA1/LPA2; test: calcium mobilization in Sf9 cells expressing LPA1/LPA2 chimera receptor; assay type: cell-based; settings: FIG. 58C
[8] = system: PC-3 cells; test: cellular proliferation and growth factor withdrawal-induced apoptosis; assay type: cell-based, human
[9] = molecular target: T3, LPA3 receptor; test: HA-Erk1 phosphorylation in HEK 293 T cells transfected with LPA3; assay type: cell-based; design: expressed in transfected cells; settings: LPA3 transfected HEK 293 T; 0.01, 0.1, or 1 μM
Excerpt: We have also tested kinase activation by the LPA3 receptor subtype using OMPT as a tool. We determined whether activation of the LPA3 receptor by OMPT can be linked to ERK activation (related to MAP kinase signaling pathway) in mammalian cells, HEK 293 T cells, by co-transfecting hemagglutinin (HA)-tagged Erk1 (HA-Erk1) with either a control vector or an expression vector having LPA1, LPA2, or LPA3. […] There is no phosphorylation of HA-Erk1 at lower concentration of LPA or OMPT in the absence of LPA receptors. […] Thus, the data confirmed that OMPT, an LPA derivative, is a selective agonist for LPA3 receptor subtype, capable of inducing MAPK activation.

T1 sequence (Q9HBW0 whole entry): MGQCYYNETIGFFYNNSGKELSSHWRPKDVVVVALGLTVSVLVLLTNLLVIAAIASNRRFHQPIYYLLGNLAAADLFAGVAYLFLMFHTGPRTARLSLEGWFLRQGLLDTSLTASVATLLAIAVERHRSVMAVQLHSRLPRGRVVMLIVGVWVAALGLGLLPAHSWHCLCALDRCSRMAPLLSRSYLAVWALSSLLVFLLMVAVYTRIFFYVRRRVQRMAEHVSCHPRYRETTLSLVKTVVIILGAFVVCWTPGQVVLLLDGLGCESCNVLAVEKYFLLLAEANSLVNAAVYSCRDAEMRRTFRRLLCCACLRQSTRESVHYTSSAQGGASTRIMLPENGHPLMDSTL

SMILES: CCCCCCCC/C=C\CCCCCCCC(=O)OCC(COP(O)(O)=S)OC (racemic) [OMPT, 1-oleoyl-sn2-O-methyl-rac-glycero-3-phosphothionate]
- calcium mobilization ([1]; Sf9 cells expressing LPA2, FIG. 58B): did not induce calcium mobilization
- EC50 ([1]; Sf9 cells expressing LPA2, read-out: EC50 of increase in intracellular calcium concentration): > 10000 nM
- activation in GTP[γ-35S] binding assay [2]: does not activate
- activation in GTP[γ-35S] binding assay [3]: activates
- stimulation of membrane ruffling and cell migration [4]: induces neither morphology changes nor migration
- EC50 [5]: ~117 nM
- calcium mobilization [6]: efficiently activates calcium mobilization
- EC50 ([6]; read-out: EC50 of increase in intracellular calcium concentration): 69 nM
- calcium mobilization [7]: did not induce calcium mobilization
- cellular proliferation and prevention of growth factor withdrawal-induced apoptosis [8]: increase cellular proliferation and prevent growth factor withdrawal-induced apoptosis
- HA-Erk1 phosphorylation [9]: stimulates Erk1 phosphorylation at all concentrations tested
